We go through ten compounds from US7491825B2, “Basic non-peptide bradykinin antagonists and pharmaceutical compositions therefrom” (Menarini Ricerche S.p.A., priority 2002, dated 2009).

Structures can show the parent of a compound that is named as a salt.

The first test has as its target T1, human B2 receptor (Homo sapiens, UniProt P30411).
T1 construct: human B2 receptor expressed in human fibroblasts W138; endogenous in cells; host or cells: human fibroblasts W138 (WI-38)
T1 sequence (P30411 1-391): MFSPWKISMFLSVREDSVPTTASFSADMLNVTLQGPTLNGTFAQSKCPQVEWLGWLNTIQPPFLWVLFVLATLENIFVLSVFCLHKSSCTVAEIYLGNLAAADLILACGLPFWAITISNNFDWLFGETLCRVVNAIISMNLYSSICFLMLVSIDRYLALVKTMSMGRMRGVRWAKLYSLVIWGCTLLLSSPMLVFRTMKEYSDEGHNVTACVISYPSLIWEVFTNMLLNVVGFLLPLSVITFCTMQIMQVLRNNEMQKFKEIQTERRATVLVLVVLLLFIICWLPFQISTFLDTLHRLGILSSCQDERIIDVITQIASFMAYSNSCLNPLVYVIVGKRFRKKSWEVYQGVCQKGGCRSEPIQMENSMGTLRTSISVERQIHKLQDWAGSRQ
Nature of the test: binding to the human B2 receptor expressed in human fibroblasts W138.
Conditions: not given
From the text: In the following the binding values are reported expressed as pKi.
The compound `Cc1cc(C)c2cccc(OCc3c(Cl)ccc(S(=O)(=O)NC4(C(=O)N5CCN(C(=O)[C@H](N)CCCCNC(=N)N)CC5)CCCC4)c3Cl)c2n1` [Example 64, N-[1-[4-(2-(R)-Amino-6-guanidino-hexanoyl)-piperazine-1-carbonyl]-cyclopentyl]-2,4-dichloro-3-(2,4-dimethyl-quinolin-8-yloxymethyl)-benzenesulfonamide tris trifluoroacetate] showed a Ki of 0.631 nM.

Compound `Cc1ccc2cccc(OCc3c(Cl)ccc(S(=O)(=O)NC(C)(C)C(=O)N4CCN(C(=N)NCCCN)CC4)c3Cl)c2n1` [Example 31, N-(3-Amino-propyl)-4-{2-[2,4-dichloro-3-(2-methyl-quinolin-8-yloxymethyl)-benzenesulfonylamino]-2-methyl-propionyl}-piperazine-1-carboxamidine tris trifluoroacetate] gave a Ki of 0.398 nM.

Staying with this test, now noted: human B2 receptor expressed in human fibroblasts W138.
`Cc1cc(C)c2cccc(OCc3c(Cl)ccc(S(=O)(=O)NC4(C(=O)N5CCN(C(=O)[C@@H](N)CCCC[N+](C)(C)C)CC5)CCCC4)c3Cl)c2n1` [Example 79, N-{1-[4-(2-(S)-Amino-6-trimethylammonium-hexanoyl)-piperazine-1-carbonyl]-cyclopentyl}-2,4-dichloro-3-(2,4-dimethyl-quinolin-8-yloxymethyl)-benzenesulfonamide tris trifluoroacetate] gave a negative-log Ki (pKi) of 9.2.

With “2,4-Dichloro-3-(2-methyl-quinolin-8-yloxymethyl)-benzenesulfinic acid (2-{4-[2-R-amino-5-(N′,N″-diethyl-guanidino)-pentanoyl]-piperazin-1-yl}-1,1-dimethyl-2-oxo-ethyl)-amide [Example 42]”, the pKi was found to be 9.4.

As to “N-[1-[4-(2-(S)-Trimethylammonium-6-trimethylammonium-hexanoyl)-piperazin-1-yl]-cyclopentyl]-2,4-dichloro-3-(2,4-dimethyl-quinolin-8-yloxymethyl)-benzenesulfonamide tris trifluoroacetate [Example 88]”, the negative-log Ki (pKi) is on record as 9.7.

`Cc1cc(C)c2cccc(OCc3c(Cl)ccc(S(=O)(=O)NC(C)(C)C(=O)N4CCN(C(=O)[C@@H](N)CCCCN(C)C)CC4)c3Cl)c2n1` [Example 45, N-[2-[4-(2-(S)-Amino-6-dimethylamino-hexanoyl)-piperazin-1-yl]-1,1-dimethyl-2-oxo-ethyl]-2,4-dichloro-3-(2,4-dimethyl-quinolin-8-yloxymethyl)-benzenesulfonamide]: the negative-log Ki (pKi) is given as 9.2.

Consider “2,4-Dichloro-3-(2-methyl-quinolin-8-yloxymethyl)-benzenesulfinic acid {2-[4-(2-guanidino-ethyl)-piperazin-1-yl]-1,1-dimethyl-2-oxo-ethyl}-amide [Example 40]”, for which the negative-log Ki (pKi) is 9.7.

Still in this test, the particulars now being: human B2 receptor expressed in human fibroblasts W138; read-out: pKi (converted).
`Cc1cc(C)c2cccc(OCc3c(Cl)ccc(S(=O)(=O)NC4(C(=O)N5CCN(C(=O)C[N+](C)(C)C)CC5)CCCC4)c3Cl)c2n1` [Example 82, N-{1-[4-(2-Trimethylammonium-acetyl)-piperazine-1-carbonyl]-cyclopentyl}-2,4-dichloro-3-(2,4-dimethyl-quinolin-8-yloxymethyl)-benzenesulfonamide bis trifluoroacetate]: the Ki was 0.631 nM.

As for `Cc1cc(C)c2cccc(OCc3c(Cl)ccc(S(=O)(=O)NC4(C(=O)N5CCN(C(=O)CCCCCNC(=N)N)CC5)CCCC4)c3Cl)c2n1` [Example 67, N-[1-[4-(6-Guanidino-hexanoyl)-piperazine-1-carbonyl]-cyclopentyl]-2,4-dichloro-3-(2,4-dimethyl-quinolin-8-yloxymethyl)-benzenesulfonamide bis trifluoroacetate], the Ki is 0.794 nM.

For the compound `CC[C@@](C)(NS(=O)(=O)c1ccc(Cl)c(COc2cccc3c(C)cc(C)nc23)c1Cl)C(=O)N1CCN(C(=O)C[C@@H](N)CCCN)CC1` [Example 72, (R)—N-[4-(3-(S)-Amino-6-amino-hexanoyl)-piperazine-1-carbonyl]-1-methyl-propyl]-2,4-dichloro-3-(2,4-dimethyl-quinolin-8-yloxymethyl)-benzenesulfonamide tris trifluoroacetate], the Ki is 0.398 nM.

The pKi is −log10 of the Ki, conventionally taken in molar units. High values mean a small Ki, low ones a large Ki.
